Source: paper PMC6514978, “Synthesis, Antibacterial Activities, Mode of Action and Acute Toxicity Studies of New Oxazolidinone-Fluoroquinolone Hybrids” (Molecules, 2019)
≈ marks a conversion by molar mass, not a printed value.

Experiments:
Gram-positive bacteria = test: MIC summary, Gram-positive bacteria of the preliminary panel; assay type: cell-based
Text: (§1) 6 standard strains and 3 clinical isolates were used to the preliminary evaluation of in vitro antibacterial activities of oxazolidinone-fluoroquinolone hybrids. For the further evaluation of hybrids OBP-4 and OBP-5, 263 clinical isolates including S. aureus (46), S. haemolyticus(32), S. epidermidis (10), E. faecalis (72), E. faecium (47), S. pneumoniae (13), H. parasuis (34), S. suis (9), and 8 resistant strains including MRSA, MRSE, CIP-resistant S. aureus and S. haemolyticus, VAN and quinolone-resistant S. pneumoniae, LZD-resistant E. faecalis, LZD/VAN and quinolone-resistant E. faecium were collected and tested.
(§2) Susceptibility testing of oxazolidinone-fluoroquinolone hybrids against various bacteria was performed by the broth microdilution method as outlined by the Clinical and Laboratory Standards Institute (CLSI). Three types of media, including cation-adjusted Mueller Hinton broth, Haemophilus Test Medium and cation-adjusted Mueller Hinton broth that contained 3%–5% lysed horse blood, were used to culture the corresponding bacteria. All compounds including comparator drugs were dissolved in an appropriate solvent at a concentration of 2.048 mg/mL and then serially diluted two-fold to provide the required concentrations. A final inoculum of 5 × 10^5 CFU/mL was used and plates were read after incubation for 16–24 h at 35 °C. […]

[1] = test system: protein synthesis (E. coli extract-based cell-free protein expression system); test: In vitro transcription/translation assay (S30 T7 cell-free system, Renilla luciferase); assay type: biochemical; conditions: for IC50: E. coli S30 T7 cell-free transcription/translation, 1 h, 37 °C, read-out: IC50 Inhib. of Protein Synthesis
Protocol: The influence of hybrids OBP-4 and OBP-5 against protein synthesis was confirmed by the S30 T7 High-Yield Protein Expression System (Promega Co., Ltd.). The S30 T7 High-Yield Protein Expression System is an E. coli extract-based cell-free protein expression system, which can effectively transcribe and translate DNA fragments with a T7 promoter. The reaction system containing 1 μg plasmid DNA, 20 μL S30 Premix Plus and 18 μL T7 S30 Extract with or without compounds was incubated for 1 h at 37 °C with a rotational speed of 250 rpm, and terminated by cooling in ice for 5 min in a 96-well white multi-well plate. Then, 1.25 μL of the translation reaction mixture was added to 48.75 μL of Renilla Luciferase Assay Lysis Buffer, and mixed with 50 μL of Renilla Luciferase Assay Reagent (cat no. E2810; Promega). Renilla luciferase activity was measured on EnSpire® Multimode Plate Reader (PerkinElmer, Waltham, MA, USA). […] LZD was used as a positive control.

VRE (13B330) = test: MIC, broth microdilution (CLSI), clinical isolate; assay type: cell-based, vancomycin-resistant enterococcus; conditions: Enterococcus
Text: as §1
(§3) Susceptibility testing of oxazolidinone-fluoroquinolone hybrids against various bacteria was performed by the broth microdilution method as outlined by the Clinical and Laboratory Standards Institute (CLSI). Three types of media, including cation-adjusted Mueller Hinton broth, Haemophilus Test Medium and cation-adjusted Mueller Hinton broth that contained 3%–5% lysed horse blood, were used to culture the corresponding bacteria. All compounds including comparator drugs were dissolved in an appropriate solvent at a concentration of 2.048 mg/mL and then serially diluted two-fold to provide the required concentrations. A final inoculum of 5 × 10^5 CFU/mL was used and plates were read after incubation for 16–24 h at 35 °C. […] Standard quality control strains (ATCC) were included throughout. Each determination was repeated in triplicate.

[2] = test system: E. faecalis (72) clinical isolates; test: Susceptibility of clinical isolates (MIC); assay type: cell-based, Enterococcus faecalis; conditions: for Cumulative % of strains inhibited at MIC / No. of strains inhibited at MIC: E. faecalis (72); for fold higher activity than comparator agents: E. faecalis clinical isolates; for MIC Range / MIC50 / MIC90: E. faecalis, 72 clinical isolates; for MIC50 / MIC90: Enterococcus faecalis
Protocol: as §3, with “All compounds including comparator drugs were dissolved in an appropriate solvent at a concentration of 2.048 mg/mL and then serially diluted two-fold to provide the required concentrations.” left out

E. coli Topo IV = biological target: T1, E. coli Topo IV (Escherichia coli, UniProt P0AFI2+P20083); test: Topo IV relaxation assay; assay type: biochemical; conditions: relaxation of supercoiled pBR322, 37 °C, 30 min
T1 construct: purchased Inspiralis Co., Ltd; host or cells: overexpressing E. coli
T1 sequence (P20083 whole entry): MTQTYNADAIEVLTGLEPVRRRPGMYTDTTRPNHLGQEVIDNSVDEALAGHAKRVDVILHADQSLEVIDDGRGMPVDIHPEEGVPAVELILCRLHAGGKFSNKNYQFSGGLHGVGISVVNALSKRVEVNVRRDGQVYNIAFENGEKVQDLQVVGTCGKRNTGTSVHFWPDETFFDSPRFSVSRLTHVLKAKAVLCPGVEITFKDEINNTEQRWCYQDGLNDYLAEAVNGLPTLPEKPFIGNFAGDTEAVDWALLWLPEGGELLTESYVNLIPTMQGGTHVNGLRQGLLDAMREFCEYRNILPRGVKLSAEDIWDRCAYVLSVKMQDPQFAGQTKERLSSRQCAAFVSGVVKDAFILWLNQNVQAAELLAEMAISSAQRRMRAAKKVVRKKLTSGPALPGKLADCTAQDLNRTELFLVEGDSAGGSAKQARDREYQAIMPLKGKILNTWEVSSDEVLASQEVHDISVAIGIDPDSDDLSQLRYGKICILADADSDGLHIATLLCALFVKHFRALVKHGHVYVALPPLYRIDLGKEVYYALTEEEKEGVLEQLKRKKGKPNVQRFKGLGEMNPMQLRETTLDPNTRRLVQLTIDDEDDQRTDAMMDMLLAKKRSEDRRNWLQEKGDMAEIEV
T1 sequence (P0AFI2 whole entry): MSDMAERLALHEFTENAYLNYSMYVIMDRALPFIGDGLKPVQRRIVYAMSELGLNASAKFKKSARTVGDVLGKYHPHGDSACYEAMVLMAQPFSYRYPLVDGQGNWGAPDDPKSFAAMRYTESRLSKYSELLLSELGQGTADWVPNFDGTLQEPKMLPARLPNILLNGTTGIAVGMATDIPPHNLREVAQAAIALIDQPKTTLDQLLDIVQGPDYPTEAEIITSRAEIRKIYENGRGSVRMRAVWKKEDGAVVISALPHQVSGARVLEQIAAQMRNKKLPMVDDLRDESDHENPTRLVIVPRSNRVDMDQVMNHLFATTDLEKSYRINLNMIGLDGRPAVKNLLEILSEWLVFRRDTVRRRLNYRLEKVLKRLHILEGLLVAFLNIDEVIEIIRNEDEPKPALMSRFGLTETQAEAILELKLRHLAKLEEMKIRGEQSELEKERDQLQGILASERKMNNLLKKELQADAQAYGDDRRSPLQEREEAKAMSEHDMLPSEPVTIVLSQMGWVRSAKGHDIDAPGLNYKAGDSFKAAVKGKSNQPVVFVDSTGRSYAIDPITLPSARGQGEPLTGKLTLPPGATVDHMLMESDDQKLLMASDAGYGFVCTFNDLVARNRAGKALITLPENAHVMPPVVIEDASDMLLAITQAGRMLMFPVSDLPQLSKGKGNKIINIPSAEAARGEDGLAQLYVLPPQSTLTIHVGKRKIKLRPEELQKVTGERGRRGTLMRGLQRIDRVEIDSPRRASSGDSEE
Protocol: The E. coli Topo IV Relaxation Assay Kit (Inspiralis Co., Ltd.) was used to evaluate the effects of hybrids OBP-4 and OBP-5 against topo IV. Topo IV was prepared by the overexpressing E. coli. One unit of topo IV will relax 0.4 μg of supercoiled pBR322. In the assay, the final reaction mixtures (30 μL) consisted of 0.4 μg supercoiled pBR322 and one unit DNA Topo IV with or without compounds in assay buffer with 40 mM Hepes-KOH (pH 7.6), 100 mM potassium glutamate, 10 mM magnesium acetate, 10 mM DTT, 1 mM ATP and 50 μg/mL albumin, and then was incubated at 37 °C for 30 min. The reaction was terminated by adding 30 μL of STEB and 30 μL of chloroform/isoamyl alcohol (v:v, 24:1) after incubation for 30 min. Then, the reaction products were processed as described in a DNA gyrase supercoiling assay.

[3] = test system: H. parasuis (34) clinical isolates; test: Susceptibility of clinical isolates (MIC); assay type: cell-based, Haemophilus parasuis; conditions: for MIC50 / MIC90: Glaesserella parasuis; for MIC50 / MIC90 / MIC Range: H. parasuis, 34 clinical isolates; for MIC50: read-out: MIC50; for MIC90: read-out: MIC90; for Cumulative % of strains inhibited at MIC / No. of strains inhibited at MIC: H. parasuis (34)
Protocol: as §3, with “All compounds including comparator drugs were dissolved in an appropriate solvent at a concentration of 2.048 mg/mL and then serially diluted two-fold to provide the required concentrations.” left out

[4] = test system: other resistant organisms in the test; test: MIC summary, resistant organisms other than MRSA and MRSE; assay type: cell-based; conditions: resistant strains other than MRSA and MRSE; read-out: MICs values against other resistant organisms
Text: as §1, §2

[5] = test system: S. suis (9) clinical isolates; test: Susceptibility of clinical isolates (MIC); assay type: cell-based, Streptococcus suis; conditions: for Cumulative % of strains inhibited at MIC / No. of strains inhibited at MIC: S. suis (9); for MIC50 / MIC90 / MIC: Streptococcus suis, S. suis, 9 clinical isolates; for MIC50: read-out: MIC50; for MIC90: read-out: MIC90; for MIC: read-out: MIC Range
Protocol: as §3, with “All compounds including comparator drugs were dissolved in an appropriate solvent at a concentration of 2.048 mg/mL and then serially diluted two-fold to provide the required concentrations.” left out

C[C@H]1CCc2c(N3CCC(O)(COc4ccc(N5C[C@H](CO)OC5=O)cc4F)CC3)c(F)cc3c(=O)c(C(=O)O)cn1c23 [OBP-4]
MIC (Gram-positive bacteria; read-out: MICs against Gram-positive bacteria): ≤ 0.5 µg/mL | IC50 [1]: 5 µM | MIC (VRE (13B330)): 0.25 µg/mL (≈ 0.417 µM) | Cumulative % of strains inhibited at MIC ([2]; MIC 0.125 µg/mL): 36.1% | No. of strains inhibited at MIC ([2]; MIC 0.125 µg/mL): 17 | Cumulative % of strains inhibited at MIC ([2]; MIC 0.5 µg/mL): 98.6% | No. of strains inhibited at MIC ([2]; MIC 0.5 µg/mL): 2 | Cumulative % of strains inhibited at MIC ([2]; MIC 1 µg/mL): 100.0% | No. of strains inhibited at MIC ([2]; MIC 1 µg/mL): 1 | Cumulative % of strains inhibited at MIC ([2]; MIC […]): 95.8% | No. of strains inhibited at MIC ([2]; MIC […]): 43 | Cumulative % of strains inhibited at MIC ([2]; MIC ≤[…]): 12.5% | No. of strains inhibited at MIC ([2]; MIC ≤[…]): 9 | fold higher activity than comparator agents [2]: 2- to 16 fold | MIC Range [2]: ≤0.0625 to 1 µg/mL | MIC50 [2]: 0.25 µg/mL (≈ 0.417 µM) | MIC90 [2]: 0.25 µg/mL (≈ 0.417 µM) | IC50 (E. coli Topo IV): 10 to 15 µM | MIC50 [3]: 1 µg/mL (≈ 1.67 µM) | MIC90 [3]: 4 µg/mL (≈ 6.67 µM) | Cumulative % of strains inhibited at MIC ([3]; MIC 0.5 µg/mL): 35.3% | No. of strains inhibited at MIC ([3]; MIC 0.5 µg/mL): 5 | Cumulative % of strains inhibited at MIC ([3]; MIC 1 µg/mL): 61.8% | No. of strains inhibited at MIC ([3]; MIC 1 µg/mL): 9 | Cumulative % of strains inhibited at MIC ([3]; MIC 2 µg/mL): 79.4% | No. of strains inhibited at MIC ([3]; MIC 2 µg/mL): 6 | Cumulative % of strains inhibited at MIC ([3]; MIC 4 µg/mL): 100.0% | No. of strains inhibited at MIC ([3]; MIC 4 µg/mL): 7 | Cumulative % of strains inhibited at MIC ([3]; MIC […]): 20.6% | No. of strains inhibited at MIC ([3]; MIC […]): 3 | Cumulative % of strains inhibited at MIC ([3]; MIC ≤[…]): 11.8% | No. of strains inhibited at MIC ([3]; MIC ≤[…]): 4 | MIC Range [3]: ≤0.0625 to 4 µg/mL | MIC [4]: 0.0625 to 1 µg/mL (≈ 0.104 to 1.67 µM) | Cumulative % of strains inhibited at MIC ([5]; MIC 0.125 µg/mL): 77.8% | No. of strains inhibited at MIC ([5]; MIC 0.125 µg/mL): 2 | Cumulative % of strains inhibited at MIC ([5]; MIC 2 µg/mL): 100% | No. of strains inhibited at MIC ([5]; MIC 2 µg/mL): 1 | Cumulative % of strains inhibited at MIC ([5]; MIC […]): 88.9% | No. of strains inhibited at MIC ([5]; MIC […]): 1 | Cumulative % of strains inhibited at MIC ([5]; MIC ≤[…]): 55.6% | No. of strains inhibited at MIC ([5]; MIC ≤[…]): 5 | MIC50 [5]: ≤ 0.0625 µg/mL | MIC90 [5]: 0.25 µg/mL (≈ 0.417 µM) | MIC [5]: 0.0625 to 2 µg/mL (≈ 0.104 to 3.34 µM)

CC1Sc2c(C(=O)O)c(=O)c3cc(F)c(N4CCC(O)(COc5ccc(N6C[C@H](CO)OC6=O)cc5F)CC4)cc3n21 (some centres unmarked) [OBP-5]
antibacterial efficacy against Gram-positive bacteria, times stronger than LZD (Gram-positive bacteria; relative to LZD): 4–16 times | IC50 [1]: 2 µM | protein synthesis inhibition, fold greater than LZD ([1]; relative to IC50 of LZD): 2.5 fold | MIC (VRE (13B330)): 0.5 µg/mL (≈ 0.828 µM) | Cumulative % of strains inhibited at MIC ([2]; MIC 0.125 µg/mL): 91.7% | No. of strains inhibited at MIC ([2]; MIC 0.125 µg/mL): 49 | Cumulative % of strains inhibited at MIC ([2]; MIC 0.5 µg/mL): 100.0% | No. of strains inhibited at MIC ([2]; MIC 0.5 µg/mL): 1 | Cumulative % of strains inhibited at MIC ([2]; MIC […]): 98.6% | No. of strains inhibited at MIC ([2]; MIC […]): 5 | Cumulative % of strains inhibited at MIC ([2]; MIC ≤[…]): 23.6% | No. of strains inhibited at MIC ([2]; MIC ≤[…]): 17 | fold higher activity than comparator agents [2]: 2- to 16 fold | MIC Range [2]: ≤0.0625 to 0.5 µg/mL | MIC50 [2]: 0.125 µg/mL (≈ 0.207 µM) | MIC90 [2]: 0.125 µg/mL (≈ 0.207 µM) | IC50 (E. coli Topo IV): > 40 µM | MIC50 [3]: 0.5 µg/mL (≈ 0.828 µM) | MIC90 [3]: 2 µg/mL (≈ 3.31 µM) | Cumulative % of strains inhibited at MIC ([3]; MIC 0.125 µg/mL): 17.6% | No. of strains inhibited at MIC ([3]; MIC 0.125 µg/mL): 1 | Cumulative % of strains inhibited at MIC ([3]; MIC 0.5 µg/mL): 47.1% | No. of strains inhibited at MIC ([3]; MIC 0.5 µg/mL): 6 | Cumulative % of strains inhibited at MIC ([3]; MIC 1 µg/mL): 67.6% | No. of strains inhibited at MIC ([3]; MIC 1 µg/mL): 7 | Cumulative % of strains inhibited at MIC ([3]; MIC 2 µg/mL): 97.1% | No. of strains inhibited at MIC ([3]; MIC 2 µg/mL): 10 | Cumulative % of strains inhibited at MIC ([3]; MIC 4 µg/mL): 100.0% | No. of strains inhibited at MIC ([3]; MIC 4 µg/mL): 1 | Cumulative % of strains inhibited at MIC ([3]; MIC […]): 29.4% | No. of strains inhibited at MIC ([3]; MIC […]): 4 | Cumulative % of strains inhibited at MIC ([3]; MIC ≤[…]): 14.7% | No. of strains inhibited at MIC ([3]; MIC ≤[…]): 5 | MIC Range [3]: ≤0.0625 to 4 µg/mL | MIC [4]: 0.0625 to 1 µg/mL (≈ 0.104 to 1.66 µM) | Cumulative % of strains inhibited at MIC ([5]; MIC 0.125 µg/mL): 88.9% | No. of strains inhibited at MIC ([5]; MIC 0.125 µg/mL): 3 | Cumulative % of strains inhibited at MIC ([5]; MIC 2 µg/mL): 100% | No. of strains inhibited at MIC ([5]; MIC 2 µg/mL): 1 | Cumulative % of strains inhibited at MIC ([5]; MIC ≤[…]): 55.6% | No. of strains inhibited at MIC ([5]; MIC ≤[…]): 5 | MIC50 [5]: ≤ 0.0625 µg/mL | MIC90 [5]: 0.125 µg/mL (≈ 0.207 µM) | MIC [5]: 0.0625 to 2 µg/mL (≈ 0.104 to 3.31 µM)
